Where no end group is shown, it is not given here.
Experiments:
[1] = test system: S. aureus (29): reference (5) and clinical (24) strains; settings: for Mean value of MIC: mean over 29 S. aureus strains (Table 5); for Mean MIC values: mean over 29 S. aureus strains, as repeated in Table 6
Experimental: Microbiological assays were performed using reference and clinical strains of Staphylococcus aureus. Minimal inhibitory concentrations (MIC) were determined by broth microdilution method on 96-well polystyrene plates according to Clinical and Laboratory Standards Institute (CLSI) recommendations [Clinical and Laboratory Standards Institute (CLSI) [2012]]. […] All plates were incubated for 18 h at 37 °C. […] Reference strains of S. aureus: ATCC 6538, ATCC 6538/P, ATCC 9144, ATCC 12598, and ATCC 25923 were obtained from the Polish Collection of Microorganisms (PCM, Polish Academy of Sciences, Wrocław), whereas 24 clinical strains were isolated from the patients of the Clinic of Dermatology, Venereology and Allergology (Medical University of Gdańsk). Nine strains were characterized as methicillin-resistant (MRSA). Preliminary identification and detection was conducted on the ChromID MRSA/ChromID S. aureus biplate (bioMérieux) for the simultaneous detection of S. aureus and methicillin-resistant S. aureus (MRSA). All experiments were conducted at least in triplicate.
To asses an overall activity of peptides, the mean MIC values were calculated.

[2] = test system: human red blood cells (RBCs)
Experimental: Fresh human red blood cells (RBCs) with EDTA as anticoagulant were rinsed three times with phosphate-buffer saline (PBS) by centrifugation at 800 × g for 10 min and resuspended in PBS. […] Then, the stock solution of RBCs was added to reach a final volume of 100 µL with 4% concentration of erythrocytes (v/v). The control wells for 0% hemolysis and 100% hemolysis consisted of RBCs suspended in PBS and 1% of Triton X–100, respectively. Subsequently, the plates were incubated for 60 min at 37 °C and then centrifuged at 800 × g for 10 min at 4 °C (Sorvall ST 16R Centrifuge, Thermo Scientific). After centrifugation, the supernatant was carefully resuspended to new microtiter plates and the release of hemoglobin was monitored by measurement of absorbance at 540 nm (Multiskan™ GO Microplate Spectrophotometer, Thermo Scientific). All experiments were conducted in triplicate.

[3] = prolonged storage; in words; ref Nayan Desai [2013]; cited from earlier work
[4] = test system: S. aureus 015N (MRSA); type: cell-based, Staphylococcus aureus; settings: clinical strain, broth microdilution, 0.5 × 10^5 CFU/mL, 18 h, 37 °C, at least triplicate
Experimental: (§1) Microbiological assays were performed using reference and clinical strains of Staphylococcus aureus. Minimal inhibitory concentrations (MIC) were determined by broth microdilution method on 96-well polystyrene plates according to Clinical and Laboratory Standards Institute (CLSI) recommendations [Clinical and Laboratory Standards Institute (CLSI) [2012]]. For this purpose, the initial inoculums of 0.5 × 10^5 CFU/mL of bacteria were exposed to a range of concentrations of the peptides (0.5–256 µg/mL). All plates were incubated for 18 h at 37 °C. MIC was taken as the lowest concentration of the compound at which the growth of bacteria was not observed. Reference strains of S. aureus: ATCC 6538, ATCC 6538/P, ATCC 9144, ATCC 12598, and ATCC 25923 were obtained from the Polish Collection of Microorganisms (PCM, Polish Academy of Sciences, Wrocław), whereas 24 clinical strains were isolated from the patients of the Clinic of Dermatology, Venereology and Allergology (Medical University of Gdańsk). Nine strains were characterized as methicillin-resistant (MRSA). Preliminary identification and detection was conducted on the ChromID MRSA/ChromID S. aureus biplate (bioMérieux) for the simultaneous detection of S. aureus and methicillin-resistant S. aureus (MRSA). All experiments were conducted at least in triplicate.

[5] = test system: S. aureus 045N; type: cell-based, Staphylococcus aureus; settings: clinical strain, broth microdilution, 0.5 × 10^5 CFU/mL, 18 h, 37 °C, at least triplicate
Experimental: as §1

[6] = test system: S. aureus ATCC 6538/P; type: cell-based, Staphylococcus aureus; settings: reference strain, broth microdilution, 0.5 × 10^5 CFU/mL, 18 h, 37 °C, at least triplicate
Experimental: as §1

[7] = test system: S. aureus 030N; type: cell-based, Staphylococcus aureus; settings: clinical strain, broth microdilution, 0.5 × 10^5 CFU/mL, 18 h, 37 °C, at least triplicate
Experimental: as §1

[8] = test system: S. aureus 017S (MRSA); type: cell-based, Staphylococcus aureus; settings: clinical strain, broth microdilution, 0.5 × 10^5 CFU/mL, 18 h, 37 °C, at least triplicate
Experimental: as §1

[9] = test system: S. aureus K19N; type: cell-based, Staphylococcus aureus; settings: clinical strain, broth microdilution, 0.5 × 10^5 CFU/mL, 18 h, 37 °C, at least triplicate
Experimental: as §1

[10] = test system: S. aureus K46N; type: cell-based, Staphylococcus aureus; settings: clinical strain, broth microdilution, 0.5 × 10^5 CFU/mL, 18 h, 37 °C, at least triplicate
Experimental: as §1

[11] = test system: S. aureus 051N (MRSA); type: cell-based, Staphylococcus aureus; settings: clinical strain, broth microdilution, 0.5 × 10^5 CFU/mL, 18 h, 37 °C, at least triplicate
Experimental: as §1

[12] = test system: S. aureus 039N; type: cell-based, Staphylococcus aureus; settings: clinical strain, broth microdilution, 0.5 × 10^5 CFU/mL, 18 h, 37 °C, at least triplicate
Experimental: as §1

[13] = test system: S. aureus 004N (MRSA); type: cell-based, Staphylococcus aureus; settings: clinical strain, broth microdilution, 0.5 × 10^5 CFU/mL, 18 h, 37 °C, at least triplicate
Experimental: as §1

[14] = test system: S. aureus 053N; type: cell-based, Staphylococcus aureus; settings: clinical strain, broth microdilution, 0.5 × 10^5 CFU/mL, 18 h, 37 °C, at least triplicate
Experimental: as §1

[15] = test system: S. aureus 033N; type: cell-based, Staphylococcus aureus; settings: clinical strain, broth microdilution, 0.5 × 10^5 CFU/mL, 18 h, 37 °C, at least triplicate
Experimental: as §1

[16] = test system: S. aureus ATCC 25923; type: cell-based, Staphylococcus aureus; settings: ATCC 25923, reference strain; broth microdilution, 0.5 × 10^5 CFU/mL, 18 h, 37 °C, at least triplicate
Experimental: as §1

[17] = test system: S. aureus K50S; type: cell-based, Staphylococcus aureus; settings: clinical strain, broth microdilution, 0.5 × 10^5 CFU/mL, 18 h, 37 °C, at least triplicate
Experimental: as §1

[18] = test system: S. aureus 002S; type: cell-based, Staphylococcus aureus; settings: clinical strain, broth microdilution, 0.5 × 10^5 CFU/mL, 18 h, 37 °C, at least triplicate
Experimental: as §1

[19] = test system: S. aureus 005S; type: cell-based, Staphylococcus aureus; settings: clinical strain, broth microdilution, 0.5 × 10^5 CFU/mL, 18 h, 37 °C, at least triplicate
Experimental: as §1

[20] = test system: S. aureus ATCC 12598; type: cell-based, Staphylococcus aureus; settings: ATCC 12598, reference strain; broth microdilution, 0.5 × 10^5 CFU/mL, 18 h, 37 °C, at least triplicate
Experimental: as §1

[21] = test system: S. aureus 024N (MRSA); type: cell-based, Staphylococcus aureus; settings: clinical strain, broth microdilution, 0.5 × 10^5 CFU/mL, 18 h, 37 °C, at least triplicate
Experimental: as §1

[22] = test system: S. aureus 060S; type: cell-based, Staphylococcus aureus; settings: clinical strain, broth microdilution, 0.5 × 10^5 CFU/mL, 18 h, 37 °C, at least triplicate
Experimental: as §1

[23] = test system: S. aureus ATCC 9144; type: cell-based, Staphylococcus aureus; settings: ATCC 9144, reference strain; broth microdilution, 0.5 × 10^5 CFU/mL, 18 h, 37 °C, at least triplicate
Experimental: as §1

[24] = test system: S. aureus 017N (MRSA); type: cell-based, Staphylococcus aureus; settings: clinical strain, broth microdilution, 0.5 × 10^5 CFU/mL, 18 h, 37 °C, at least triplicate
Experimental: as §1

[25] = test system: S. aureus ATCC 6538; type: cell-based, Staphylococcus aureus; settings: ATCC 6538, reference strain; broth microdilution, 0.5 × 10^5 CFU/mL, 18 h, 37 °C, at least triplicate
Experimental: as §1

[26] = test system: S. aureus 001N (MRSA); type: cell-based, Staphylococcus aureus; settings: clinical strain, broth microdilution, 0.5 × 10^5 CFU/mL, 18 h, 37 °C, at least triplicate
Experimental: as §1

[27] = test system: S. aureus 048S; type: cell-based, Staphylococcus aureus; settings: clinical strain, broth microdilution, 0.5 × 10^5 CFU/mL, 18 h, 37 °C, at least triplicate
Experimental: as §1

[28] = test system: S. aureus 002N; type: cell-based, Staphylococcus aureus; settings: clinical strain, broth microdilution, 0.5 × 10^5 CFU/mL, 18 h, 37 °C, at least triplicate
Experimental: as §1

[29] = test system: S. aureus 001S (MRSA); type: cell-based, Staphylococcus aureus; settings: clinical strain, broth microdilution, 0.5 × 10^5 CFU/mL, 18 h, 37 °C, at least triplicate
Experimental: as §1

[30] = test system: S. aureus 043SC (MRSA); type: cell-based, Staphylococcus aureus; settings: clinical strain, broth microdilution, 0.5 × 10^5 CFU/mL, 18 h, 37 °C, at least triplicate
Experimental: as §1

[31] = test system: S. aureus 051S; type: cell-based, Staphylococcus aureus; settings: clinical strain, broth microdilution, 0.5 × 10^5 CFU/mL, 18 h, 37 °C, at least triplicate
Experimental: as §1

[32] = test system: S. aureus 013S; type: cell-based, Staphylococcus aureus; settings: clinical strain, broth microdilution, 0.5 × 10^5 CFU/mL, 18 h, 37 °C, at least triplicate
Experimental: as §1

| Substance | Mean value of MIC [1] [mg/L] | Mean MIC values [1] [mg/L] | MIC [4] [mg/L] | MIC [5] [mg/L] | MIC [6] [mg/L] | MIC [7] [mg/L] | MIC [8] [mg/L] | MIC [9] [mg/L] | MIC [10] [mg/L] | MIC [11] [mg/L] | MIC [12] [mg/L] | MIC [13] [mg/L] | MIC [14] [mg/L] | MIC [15] [mg/L] | MIC [16] [mg/L] | MIC [17] [mg/L] | MIC [18] [mg/L] | MIC [19] | MIC [20] [mg/L] | MIC [21] | also measured |
| --- | --- | --- | --- | --- | --- | --- | --- | --- | --- | --- | --- | --- | --- | --- | --- | --- | --- | --- | --- | --- | --- |
| FLPLIGRVLSGIL-NH2 [Temporin A] | – | – | – | – | – | – | – | – | – | – | – | – | – | – | – | – | – | – | – | – | MIC range among strains ([1]; range over all S. aureus strains and the salts of the peptide): 2 to 8 mg/L; hemolysis ([2]; at 256 µg/mL, human RBCs 4% (v/v) in PBS, 60 min, 37 °C, absorbance 540 nm, 100% = 1% Triton X-100, triplicate): ≤ 4%; hemolysis of RBCs ([2]; human RBCs, in words): almost undetectable |
| GIGKFLKKAKKFGKAFVKILKK-NH2 [Pexiganan AcO^−] | 7.1 | – | – | – | – | – | – | – | – | – | – | – | – | – | – | – | – | – | – | – | hemolysis of RBCs at the mean MIC value ([2]; human RBCs, at the mean MIC value, in words): ignorable; stability of the salt form [3]: the most stable even during prolonged storage |
| KWKLFKKIGAVLKVL-NH2 [CAMEL AcO^−] | ≤ 2.8 | ≤ 2.8 | 4 | 4 | 1 | 4 | 2 | 2 | 4 | 2 | 4 | 4 | 4 | 4 | 8 | 1 | 4 | ≤ (≤ alone stands for MIC ≤ 0.25 µg/mL) | 2 | ≤ (≤ alone stands for MIC ≤ 0.25 µg/mL) | MIC [22]: 1 mg/L; MIC [23]: 2 mg/L; MIC [24]: 2 mg/L; MIC [25]: ≤ (≤ alone stands for MIC ≤ 0.25 µg/mL); MIC [26]: 2 mg/L; MIC [27]: 4 mg/L; MIC [28]: 4 mg/L; MIC [29]: 4 mg/L; MIC [30]: 4 mg/L; MIC [31]: 2 mg/L; MIC [32]: ≤ (≤ alone stands for MIC ≤ 0.25 µg/mL) |
| KWKLFKKIGAVLKVL-NH2 [CAMEL Cl^−] | ≤ 2.0 | ≤ 2.0 | 2 | 4 | 1 | 4 | 2 | 1 | 4 | 2 | 4 | 2 | 4 | 4 | 2 | 1 | 1 | ≤ (≤ alone stands for MIC ≤ 0.25 µg/mL) | 1 | ≤ (≤ alone stands for MIC ≤ 0.25 µg/mL) | MIC [22]: 1 mg/L; MIC [23]: 1 mg/L; MIC [24]: 2 mg/L; MIC [25]: ≤ (≤ alone stands for MIC ≤ 0.25 µg/mL); MIC [26]: 2 mg/L; MIC [27]: 4 mg/L; MIC [28]: ≤ (≤ alone stands for MIC ≤ 0.25 µg/mL); MIC [29]: 2 mg/L; MIC [30]: 4 mg/L; MIC [31]: 2 mg/L; MIC [32]: ≤ (≤ alone stands for MIC ≤ 0.25 µg/mL) |
| KWKLFKKIGAVLKVL-NH2 [CAMEL TFA^−] | ≤ 3.5 | ≤ 3.5 | 4 | 4 | 4 | 4 | 2 | 4 | 4 | 4 | 4 | 4 | 4 | 4 | 8 | 1 | 4 | ≤ (≤ alone stands for MIC ≤ 0.25 µg/mL) | 4 | ≤ (≤ alone stands for MIC ≤ 0.25 µg/mL) | MIC [22]: 2 mg/L; MIC [23]: 8 mg/L; MIC [24]: 4 mg/L; MIC [25]: 2 mg/L; MIC [26]: 4 mg/L; MIC [27]: 4 mg/L; MIC [28]: 4 mg/L; MIC [29]: 4 mg/L; MIC [30]: 4 mg/L; MIC [31]: 2 mg/L; MIC [32]: ≤ (≤ alone stands for MIC ≤ 0.25 µg/mL) |
